Test results published in patent US10669287B2, “Curcumin-boron complex and pharmaceutical containing same” (JAPAN SCIENCE AND TECHNOLOGY AGENCY, priority 2016, dated 2020).

Assay: Conversion of N-benzoyl-Met under different glycerol concentrations, Test Example 8
Conditions: compound 2 μM, N-benzoyl-Met 2 mM, glycerol-methanol 0, 10, 30, or 50% glycerol, 780 nm, room temperature
Experimental: To a glycerol-methanol mixed solvent (glycerol: 0, 10, 30, or 50%), furfuryl alcohol or N-benzoyl-Met (2 mM in each case) and the compound E (2 μM) were added, and the mixture was subjected to light irradiation (wavelength: 780 nm) at room temperature, and the concentration of furfuryl alcohol or N-benzoyl-Met was quantified by using a UV absorptiometer with LC/MS 10 minutes, 20 minutes, and 30 minutes after the initiation of light irradiation.

## O=C(O)CCCCCN1CCCc2cc(/C=C/C3=[O+][B-](F)(C(F)(F)C(F)(F)F)OC(/C=C/c4cc5c6c(c4)CCCN6CCC5)=C3Br)ccc21 (stereo not shown) [Compound E]
  oxygenation of N-benzoyl-Met: accelerated as the viscosity of the solvent was higher
